This is an account of results in ChEMBL document CHEMBL1201862, “PubChem BioAssay data set” (2004).

The target of one assay is Large T antigen (Simian virus 40, UniProt P03070). Type of assay: functional, Betapolyomavirus macacae.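 Also: Confirmatory-stage PubChem screen for compounds that inhibit SV40 T antigen.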
The target in another assay is Aspartyl aminopeptidase (Plasmodium falciparum 3D7, UniProt Q8I2J3).
Assay [1] has as its target T1, Estrogen receptor beta (Homo sapiens, UniProt Q92731).
The next assay addresses Procathepsin L (Homo sapiens, UniProt P07711).
The next assay concerns the target T2, Leucine aminopeptidase (Plasmodium falciparum 3D7, UniProt Q8IL11).
T2 sequence (Q8IL11 whole entry): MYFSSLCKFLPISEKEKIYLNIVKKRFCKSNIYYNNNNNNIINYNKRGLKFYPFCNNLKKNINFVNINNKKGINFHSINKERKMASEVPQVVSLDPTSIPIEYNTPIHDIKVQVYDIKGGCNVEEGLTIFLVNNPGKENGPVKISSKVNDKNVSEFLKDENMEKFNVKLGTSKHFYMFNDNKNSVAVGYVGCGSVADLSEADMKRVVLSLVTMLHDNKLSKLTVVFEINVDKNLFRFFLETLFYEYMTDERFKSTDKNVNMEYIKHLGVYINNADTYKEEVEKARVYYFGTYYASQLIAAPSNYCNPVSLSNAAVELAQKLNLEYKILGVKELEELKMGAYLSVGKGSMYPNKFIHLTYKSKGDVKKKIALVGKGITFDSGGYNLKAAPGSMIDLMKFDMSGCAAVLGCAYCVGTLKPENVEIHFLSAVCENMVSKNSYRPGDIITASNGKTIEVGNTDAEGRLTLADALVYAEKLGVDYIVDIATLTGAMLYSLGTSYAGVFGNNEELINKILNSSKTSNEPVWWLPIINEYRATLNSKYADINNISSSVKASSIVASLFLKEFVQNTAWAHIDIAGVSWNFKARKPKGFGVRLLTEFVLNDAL
Put plainly: P. falciparum M17LAP inhibitors, primary screen, biochemical, fluorogenic H-Leu-NHMec substrate, 1536-well (AID 1619). It is filed as functional.

Assay [2] deals with T1, Estrogen receptor beta. Put plainly: ERβ–SRC-3 coactivator interaction inhibitors, confirmation, orthogonal assay, biochemical, ELISA, streptavidin-HRP readout (AID 1060).
For another assay, the target named is T3, Bcl-2-like protein 10 (Homo sapiens, UniProt Q9HD36).
T3 sequence (Q9HD36 whole entry): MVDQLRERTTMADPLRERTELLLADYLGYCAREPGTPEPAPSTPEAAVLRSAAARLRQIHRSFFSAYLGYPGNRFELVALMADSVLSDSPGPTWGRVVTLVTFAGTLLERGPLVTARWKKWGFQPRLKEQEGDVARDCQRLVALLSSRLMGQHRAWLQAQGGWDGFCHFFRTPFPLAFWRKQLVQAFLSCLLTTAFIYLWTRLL
Put plainly: displacers of TR3 peptide from Bcl-B, primary screen, selectivity assay for Bfl-1 inhibitor project, biochemical, fluorescence polarization, FITC-TR3 peptide (AID 748).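 Also: fluorescence polarization from a fluorescein-labelled TR3 peptide binding purified Bcl-B.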 For orientation: Polarisation of emitted light reports the rotation of a fluorescent probe.

Assay [3] is described as follows: inhibitors of firefly luciferase expression or activity, dose response, H4 neuroglioma cells, luminescence (AID 1990). Type of assay: functional, cell-based.
In assay [4] the target is Peroxisome proliferator-activated receptor gamma/Nuclear receptor corepressor 2 (Homo sapiens, UniProt P37231+Q9Y618). It is filed as functional.
Peroxisome proliferator-activated receptor gamma/Nuclear receptor corepressor 2, sequence (P37231 whole entry): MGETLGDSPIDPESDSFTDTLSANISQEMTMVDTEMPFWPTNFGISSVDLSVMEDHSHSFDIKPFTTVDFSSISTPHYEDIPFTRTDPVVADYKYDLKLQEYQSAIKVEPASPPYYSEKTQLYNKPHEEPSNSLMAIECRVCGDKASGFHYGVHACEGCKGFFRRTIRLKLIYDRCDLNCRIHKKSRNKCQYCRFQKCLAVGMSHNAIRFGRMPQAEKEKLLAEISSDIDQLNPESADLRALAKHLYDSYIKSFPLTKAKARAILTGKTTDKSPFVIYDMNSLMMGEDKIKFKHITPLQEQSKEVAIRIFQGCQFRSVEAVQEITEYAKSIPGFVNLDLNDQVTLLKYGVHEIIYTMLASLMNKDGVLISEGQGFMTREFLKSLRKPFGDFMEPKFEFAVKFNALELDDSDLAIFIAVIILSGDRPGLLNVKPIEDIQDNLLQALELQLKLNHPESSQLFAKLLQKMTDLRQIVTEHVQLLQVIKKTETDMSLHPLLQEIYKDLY
Peroxisome proliferator-activated receptor gamma/Nuclear receptor corepressor 2, sequence (Q9Y618 whole entry): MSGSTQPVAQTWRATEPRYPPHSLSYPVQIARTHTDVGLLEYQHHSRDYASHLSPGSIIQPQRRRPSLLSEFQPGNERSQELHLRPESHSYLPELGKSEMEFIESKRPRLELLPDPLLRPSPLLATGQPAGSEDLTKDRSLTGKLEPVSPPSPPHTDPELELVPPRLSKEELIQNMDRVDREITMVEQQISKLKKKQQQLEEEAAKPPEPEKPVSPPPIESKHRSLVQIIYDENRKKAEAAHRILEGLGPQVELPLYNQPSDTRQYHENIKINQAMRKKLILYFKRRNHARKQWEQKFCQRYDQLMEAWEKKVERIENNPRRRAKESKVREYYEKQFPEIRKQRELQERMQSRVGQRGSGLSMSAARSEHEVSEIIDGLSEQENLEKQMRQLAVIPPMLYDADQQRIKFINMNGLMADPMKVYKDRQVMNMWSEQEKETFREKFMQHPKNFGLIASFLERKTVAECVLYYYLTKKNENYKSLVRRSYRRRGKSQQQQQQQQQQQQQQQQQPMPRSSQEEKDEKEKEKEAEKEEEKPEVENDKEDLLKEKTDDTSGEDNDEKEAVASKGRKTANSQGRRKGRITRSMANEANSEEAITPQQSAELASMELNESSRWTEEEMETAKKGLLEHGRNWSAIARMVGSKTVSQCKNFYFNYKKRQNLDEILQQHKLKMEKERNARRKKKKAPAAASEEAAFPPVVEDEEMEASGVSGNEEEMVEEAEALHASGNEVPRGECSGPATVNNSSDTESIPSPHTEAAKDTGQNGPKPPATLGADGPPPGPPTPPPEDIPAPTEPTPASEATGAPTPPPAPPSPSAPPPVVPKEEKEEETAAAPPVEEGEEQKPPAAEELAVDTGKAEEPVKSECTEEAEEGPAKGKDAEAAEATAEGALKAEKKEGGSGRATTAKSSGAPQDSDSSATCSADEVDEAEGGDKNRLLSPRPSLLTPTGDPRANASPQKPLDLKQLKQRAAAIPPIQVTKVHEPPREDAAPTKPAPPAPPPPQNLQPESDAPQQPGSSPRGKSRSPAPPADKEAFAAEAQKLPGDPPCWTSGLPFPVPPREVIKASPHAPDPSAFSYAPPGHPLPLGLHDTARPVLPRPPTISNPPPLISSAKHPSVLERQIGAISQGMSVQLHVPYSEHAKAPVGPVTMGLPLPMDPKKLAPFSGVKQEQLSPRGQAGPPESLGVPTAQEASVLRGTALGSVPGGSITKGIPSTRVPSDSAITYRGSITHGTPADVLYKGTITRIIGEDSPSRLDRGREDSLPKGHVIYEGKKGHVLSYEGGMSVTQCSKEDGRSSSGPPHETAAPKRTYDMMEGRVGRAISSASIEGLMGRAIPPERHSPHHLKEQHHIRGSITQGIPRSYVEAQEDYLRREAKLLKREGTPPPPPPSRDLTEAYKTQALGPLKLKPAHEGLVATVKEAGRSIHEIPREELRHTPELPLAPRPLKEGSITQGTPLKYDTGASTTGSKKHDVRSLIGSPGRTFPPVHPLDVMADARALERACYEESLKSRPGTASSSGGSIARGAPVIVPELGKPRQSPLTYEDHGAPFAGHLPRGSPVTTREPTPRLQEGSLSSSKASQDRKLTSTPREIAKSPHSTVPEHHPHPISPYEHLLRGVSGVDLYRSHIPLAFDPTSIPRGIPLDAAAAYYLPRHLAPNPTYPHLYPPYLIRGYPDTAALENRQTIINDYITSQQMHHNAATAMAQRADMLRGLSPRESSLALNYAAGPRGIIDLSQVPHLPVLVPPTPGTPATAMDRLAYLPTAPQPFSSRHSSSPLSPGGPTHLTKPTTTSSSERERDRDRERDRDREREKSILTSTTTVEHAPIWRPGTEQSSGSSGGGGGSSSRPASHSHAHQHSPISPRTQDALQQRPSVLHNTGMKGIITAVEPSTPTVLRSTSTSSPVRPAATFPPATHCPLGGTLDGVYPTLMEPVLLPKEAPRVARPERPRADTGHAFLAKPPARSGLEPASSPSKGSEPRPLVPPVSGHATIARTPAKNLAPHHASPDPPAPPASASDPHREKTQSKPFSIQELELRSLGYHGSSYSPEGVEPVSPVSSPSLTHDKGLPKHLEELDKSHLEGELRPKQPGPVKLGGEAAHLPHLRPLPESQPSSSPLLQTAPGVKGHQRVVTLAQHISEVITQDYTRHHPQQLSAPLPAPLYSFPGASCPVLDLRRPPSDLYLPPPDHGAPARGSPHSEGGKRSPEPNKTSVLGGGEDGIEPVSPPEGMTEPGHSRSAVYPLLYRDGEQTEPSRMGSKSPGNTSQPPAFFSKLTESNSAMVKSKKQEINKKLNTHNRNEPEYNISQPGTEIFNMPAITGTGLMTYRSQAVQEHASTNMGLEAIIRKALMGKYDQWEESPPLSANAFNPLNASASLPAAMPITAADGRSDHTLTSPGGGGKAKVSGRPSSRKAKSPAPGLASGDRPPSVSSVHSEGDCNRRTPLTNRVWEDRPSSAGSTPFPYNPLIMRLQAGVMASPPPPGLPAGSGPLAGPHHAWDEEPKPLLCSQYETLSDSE
Assay [5] can be described thus: Luminescence Cell-Based Dose Response HTS to Identify Inhibitors of 5'UTR Stem-Loop Driven Prion Protein mRNA Translation in H4 Neuroglioblastoma Cells. [Related pubchem assays: 1827 (Project Summary), 1813 (Primary HTS)]. Type of assay: functional.
Assay [6] can be described thus: inhibitors of SNCA 5'UTR-driven reporter translation, confirmation, H4 neuroglioma cells, luminescence (AID 1988). It is filed as functional, cell-based.
For a further assay, the target named is Galanin receptor type 2 (Homo sapiens, UniProt O43603). The assay can be described thus: Dose Response cell-based high-throughput screening assay to identify agonists of galanin receptor 2 (GALR2). [Related pubchem assays: 864 ]. It is filed as functional.
Assay [7] deals with Photoreceptor-specific nuclear receptor (Homo sapiens, UniProt Q9Y5X4). Type of assay: functional.
Photoreceptor-specific nuclear receptor, sequence (Q9Y5X4 whole entry): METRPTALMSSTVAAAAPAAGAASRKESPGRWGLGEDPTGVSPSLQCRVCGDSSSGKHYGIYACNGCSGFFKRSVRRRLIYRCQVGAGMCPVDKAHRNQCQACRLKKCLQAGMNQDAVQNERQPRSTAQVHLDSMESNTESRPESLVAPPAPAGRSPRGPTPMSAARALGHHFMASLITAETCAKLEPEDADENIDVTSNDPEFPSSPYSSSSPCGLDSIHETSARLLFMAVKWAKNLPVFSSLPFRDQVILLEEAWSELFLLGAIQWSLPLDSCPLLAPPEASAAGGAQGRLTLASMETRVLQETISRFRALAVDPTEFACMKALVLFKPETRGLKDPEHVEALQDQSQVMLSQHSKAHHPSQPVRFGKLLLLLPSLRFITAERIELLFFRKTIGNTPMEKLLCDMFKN
A short description of assay [8]: Vero cell cytotoxicity, dose response, cytotoxicity control for Vif-APOBEC3G degradation inhibitor project, Vero cells (AID 1117358). It is filed as functional. The settings on record: Human immunodeficiency virus 1, Vero.
The target of the next assay is Protein Rev (Human immunodeficiency virus type 1 group M subtype B (isolate WMJ22)(HIV-1), UniProt P05866). Put plainly: HIV-1 Rev-RRE RNA binding disruptors, dose response, biochemical, protein-RNA interaction (AID 842). Further details: species or system Human immunodeficiency virus 1.
Protein Rev, sequence (P05866 whole entry): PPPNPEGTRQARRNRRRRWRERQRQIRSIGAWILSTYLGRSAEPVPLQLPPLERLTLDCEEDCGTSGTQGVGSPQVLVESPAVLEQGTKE
For another assay, the system named is Staphylococcus aureus. The assay can be described thus: Inhibitors of Bacterial Quorum Sensing Structure Activity Relationship (SAR) Analysis: Dose Response Assay. [Related pubchem assays: 700, 527 ]. It is filed as functional, organism-based.
Another assay has as its target T4, Insulin-degrading enzyme (Homo sapiens, UniProt P14735).
T4 sequence (P14735 whole entry): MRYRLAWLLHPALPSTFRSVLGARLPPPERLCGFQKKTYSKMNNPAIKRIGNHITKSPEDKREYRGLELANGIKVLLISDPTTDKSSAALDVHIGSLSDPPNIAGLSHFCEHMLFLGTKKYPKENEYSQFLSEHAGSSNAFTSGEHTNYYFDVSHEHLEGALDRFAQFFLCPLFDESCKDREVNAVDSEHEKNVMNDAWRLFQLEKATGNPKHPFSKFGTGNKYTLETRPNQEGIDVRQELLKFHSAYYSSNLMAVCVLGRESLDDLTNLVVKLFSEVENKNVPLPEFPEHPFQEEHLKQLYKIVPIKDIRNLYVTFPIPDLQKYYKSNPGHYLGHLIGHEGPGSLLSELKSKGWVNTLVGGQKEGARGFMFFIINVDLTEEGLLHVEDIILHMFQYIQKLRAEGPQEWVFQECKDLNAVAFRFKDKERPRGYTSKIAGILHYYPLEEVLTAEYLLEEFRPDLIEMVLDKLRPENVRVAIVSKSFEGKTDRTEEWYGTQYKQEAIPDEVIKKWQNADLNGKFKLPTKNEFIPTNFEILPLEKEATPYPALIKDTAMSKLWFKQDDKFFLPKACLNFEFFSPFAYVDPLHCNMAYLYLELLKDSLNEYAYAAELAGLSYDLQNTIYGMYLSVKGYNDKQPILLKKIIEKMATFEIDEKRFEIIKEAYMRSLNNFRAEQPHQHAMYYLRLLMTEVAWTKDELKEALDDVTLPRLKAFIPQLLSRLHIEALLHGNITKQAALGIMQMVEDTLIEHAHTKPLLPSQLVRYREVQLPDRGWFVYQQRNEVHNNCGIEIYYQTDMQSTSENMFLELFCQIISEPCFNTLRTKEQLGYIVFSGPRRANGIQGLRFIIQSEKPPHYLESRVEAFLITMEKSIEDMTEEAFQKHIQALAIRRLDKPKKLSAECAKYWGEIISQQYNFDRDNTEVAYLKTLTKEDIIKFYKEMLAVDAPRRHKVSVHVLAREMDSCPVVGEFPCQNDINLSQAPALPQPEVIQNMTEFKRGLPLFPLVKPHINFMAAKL
The assay can be described thus: Dose Response: Fluorescence polarization-based cell-based high throughput dose response assay for inhibitors of insulin-degrading enzyme (IDE). [Related pubchem assays: 434962 (Primary screen (IDE inhibitors in singlicate)), 449730 (Counterscreen (Cytotoxicity in triplicate)), 435028 (Confirmation (IDE inhibitors in triplicate)), 434984 (Summary …. Type of assay: functional.

Assay [9] is described as follows: Counterscreen for IDE inhibitors: Luminescence-based cell-based high throughput dose response assay to identify compounds that are cytotoxic to HEK cells. [Related pubchem assays: 434962 (Primary screen (IDE inhibitors in singlicate)), 449730 (Counterscreen (Cytotoxicity in triplicate)), 435028 (Confirmation (IDE inhibitors in triplicate)) …. Type of assay: functional. Particulars: HEK293. (The purpose of a counterscreen is to sort out artefacts and off-target activity.)

Each structure is given as a SMILES string. Calls of active or inactive are those of the source.

T1 sequence (Q92731 whole entry): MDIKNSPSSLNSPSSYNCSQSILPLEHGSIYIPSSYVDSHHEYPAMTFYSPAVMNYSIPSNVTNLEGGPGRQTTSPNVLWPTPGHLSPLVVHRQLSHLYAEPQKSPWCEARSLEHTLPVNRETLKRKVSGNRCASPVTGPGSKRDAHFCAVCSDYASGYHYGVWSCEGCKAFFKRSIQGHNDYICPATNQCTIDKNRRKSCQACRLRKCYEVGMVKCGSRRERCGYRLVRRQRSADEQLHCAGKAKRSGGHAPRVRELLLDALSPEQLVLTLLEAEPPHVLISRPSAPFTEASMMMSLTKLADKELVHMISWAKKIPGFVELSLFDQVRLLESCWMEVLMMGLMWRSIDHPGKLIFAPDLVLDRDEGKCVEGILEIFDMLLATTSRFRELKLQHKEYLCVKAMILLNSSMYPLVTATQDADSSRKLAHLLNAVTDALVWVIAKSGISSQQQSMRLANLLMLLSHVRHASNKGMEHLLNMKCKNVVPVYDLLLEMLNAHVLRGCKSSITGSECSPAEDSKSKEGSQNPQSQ
Large T antigen, sequence (P03070 whole entry): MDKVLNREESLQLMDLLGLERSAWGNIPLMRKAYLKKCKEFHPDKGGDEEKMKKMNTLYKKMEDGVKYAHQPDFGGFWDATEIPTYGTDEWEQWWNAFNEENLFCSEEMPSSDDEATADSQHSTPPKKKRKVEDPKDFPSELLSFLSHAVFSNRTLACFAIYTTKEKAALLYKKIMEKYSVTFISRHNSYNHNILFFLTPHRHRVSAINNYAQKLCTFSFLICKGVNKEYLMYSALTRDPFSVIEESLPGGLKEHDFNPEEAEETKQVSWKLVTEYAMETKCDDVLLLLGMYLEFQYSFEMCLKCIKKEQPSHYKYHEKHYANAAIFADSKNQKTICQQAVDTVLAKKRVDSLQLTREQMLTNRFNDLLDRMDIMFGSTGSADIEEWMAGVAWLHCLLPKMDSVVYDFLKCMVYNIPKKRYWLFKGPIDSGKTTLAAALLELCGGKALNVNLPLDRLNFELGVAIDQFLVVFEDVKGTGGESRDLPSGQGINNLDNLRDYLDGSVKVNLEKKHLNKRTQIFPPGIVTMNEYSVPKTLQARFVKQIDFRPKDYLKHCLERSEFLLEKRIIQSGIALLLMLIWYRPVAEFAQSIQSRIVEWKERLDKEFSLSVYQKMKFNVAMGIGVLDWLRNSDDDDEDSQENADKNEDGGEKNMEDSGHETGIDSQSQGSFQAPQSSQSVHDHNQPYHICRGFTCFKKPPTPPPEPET

Take `O=C(CSc1nc(O)c2ccccc2n1)c1ccc(O)c(O)c1`: the IC50 (usually the point on the concentration scale where inhibition reaches its midpoint) is 10.7 µM (active) on Large T antigen; 1.46 µM (active) at Aspartyl aminopeptidase; 4.62 µM (active) on Estrogen receptor beta [1]; > 59.6 µM (not active) against Procathepsin L; 13 µM (active) at Leucine aminopeptidase; 0.337 µM (not active) against Estrogen receptor beta [2]. Further, the IC50 at Bcl-2-like protein 10 is 23.4 µM (active).
On to `CCOc1ccc(Br)cc1C(=O)Nc1ccc(C(=O)NCC(C)C)cc1`, for which the concentration giving a half-maximal response (EC50) – broadly, the concentration needed to bring the measured effect to its halfway point – in [3] is 21.6 µM (active); in assay [5], 18.1 µM (active); in [6] it was > 120 µM (not active); at Galanin receptor type 2, > 55.7 µM (not active). In addition, the 50% inhibitory concentration (IC50) in assay [4] and in assay [7] was > 39.8 µM (not active) throughout.
For `CCN(CC)CCNC1=NCCn2c1cc1cc(OC)ccc12`, the CC50 (commonly the concentration at which the toxic effect on the cells reaches its halfway point) in assay [8] is > 40 µM (active). The IC50 on Protein Rev is listed as > 79.4 µM (not active).
Regarding `O=C(O)c1ccccc1Nc1cccc2c1C(=O)c1ccccc1C2=O`, the IC50 in the assay on Staphylococcus aureus was 1.05 µM (active).
Take `CCOc1ccc(N2C(=O)S/C(=C\c3ccc(O)c(OC)c3)C2=O)cc1`: the 50% inhibitory concentration (IC50) against Insulin-degrading enzyme was 29.8 µM (not active); in assay [9], > 55.7 µM (not active).
